In patent US20090227606A1, “Methods for Preventing or Treating Acute and Chronic Pain” (priority 2006, published 2009):
“Also recorded” adds a separate entry of the source.

Tests used:
GLT-1 = test: eGFP-GLT-1-positive puncta in mouse spinal cord dorsal horn; format: in vivo
Experimental: With these in vivo data collected, further experiments were performed in the transgenic mice to more clearly define the effects of propentofylline treatment on GLT-1 and GLAST in the spinal cord. As discussed above, following in vivo testing, mice were transcardially perfused and tissue was fixed with paraformaldehyde. Lumbar spinal cord sections were identified and post-fixed in paraformaldehyde. After one week in sucrose to prevent freeze fracture, spinal cord segments were frozen in dry ice, mounted and prepared with cryostat sectioning. Sections were then subjected to immunohistochemical analysis. […] In order to quantitate the relative number of eGFP (marker for GLT-1) or DsRed (marker for GLAST) puncta in each spinal cord dorsal horn, images using a fluorescence microscope were taken with a Q-Fire cooled camera (397 ms exposure). […] An observer blind to the treatment groups was used to count the relative number of GLT-1 or GLAST positive puncta in the ipsilateral (injured) dorsal horn versus the contralateral (non-injured) dorsal horn. […] For both reporters (GLT-1, green color; GLAST, red color), diffuse, cytoplasmic and punctate, perinuclear expression was observed that overlapped with GFAP (blue color) in some, but not all cases.
Transgenic mice on a C57B1/6 background were created according to the methods previously described (Regan et al. 2006. J. Neuroscience, in press). Briefly, in order to determine where in the central nervous system GLAST is expressed, transgenic mice were created using a bacterial artificial chromosome containing the GLAST gene plus 18 kb of DNA upstream of the first exon and 60 kb downstream of the last exon. DsRed cDNA was inserted into the first exon to allow expression of DsRed instead of GLAST when the promoter is active. […]
(§1) As described previously with rats, mice were transcardially perfused with 0.1 M PBS (phosphate-buffered saline), pH 7.4, followed by 4%-paraformaldehyde in PBS on day 12 post-L5 spinal nerve transection. […] The sections were examined with a fluorescence microscope, and images were captured with a Q-Fire cooled camera. […]

adenosine transport = details: literature; cited from earlier work
MIP-2 (CXCL2) = test: ELISA of MIP-2 release from cultured astrocytes; format: cell-based, rat; details: seven days, LPS 1 μg/ml; propentofylline 1000 μM; db-cAMP 250 μM
Experimental: After approximately 14 days (2 days after subplating into plates, DIV 14) astrocytes had formed a confluent monolayer. […] Phase contrast microscopy was then carried out in order to assess the morphology of cells after the various treatments. Length of astrocyte processes was quantified by measuring all processes in 2-3 phase contrast images/group by an independent observer, blinded to the treatment groups using Image J v1.34s (National Institutes of Health, Bethesda, Md.).
Standard ELISA was performed for quantitative determination of MCP-1 and MIP-2 protein in cell culture supernatant. Assays were carried out according to the manufacturer's specifications (Biosource, Camarillo, Calif.) using the sandwich enzyme immunoassay procedure. Optical density at 450 nm was obtained using the MRX Revelations program (Dynex Technologies, Chantilly, Va.) and relative protein concentrations were determined by comparing samples to the standard curve generated.

GLAST [1] = test: Immunohistochemistry of rat lumbar spinal cord, GLAST; format: in vivo; details: day 12 post-transection, ipsilateral side
Experimental: For assessment of GFAP, GLT-1 and GLAST immunoreactivity, a separate group of rats (n=4/treatment) were anesthetized and transcardially perfused with 0.1 M PBS (phosphate-buffered saline), pH 7.4, followed by 4% paraformaldehyde in PBS on day 12 post-L5 spinal nerve transection. Lumbar spinal cord sections were identified, isolated, and processed as described previously (Colburn, R. W. et al. 1997. J. Neuroimmunol. 79:163-175). Free-floating, […] were cut in a cryostat and processed for immunofluorescence. Sections were blocked with 5% FBS/0.1% Triton-X 100 for 1 hour at room temperature (RT). For double immunofluorescence, spinal sections were incubated with a mixture of rabbit polyclonal anti-GLT-1 (1:500) or guinea pig anti-GLAST (1:5000, Chemicon, Temecula, Calif.), and mouse anti-GFAP G-A-5 (astrocyte marker, 1:400, Sigma Chemical Co., St. Louis, Mo.) in 3% FBS/0.1% triton-X 100/TBS over night at 4° C., washed, incubated in a mixture of goat anti-rabbit Alexa Fluor™-555 and goat anti-mouse Alexa Fluor™-488 (1:250, Molecular Probes, Eugene, Oreg.) secondary antibodies in 3% FBS/0.1% triton-X 100/TBS for 1 hour at RT. To control for nonspecific staining, control sections were incubated in the absence of primary antibodies. The sections were examined with a fluorescence microscope, and images were captured with a Q-Fire cooled camera. […]

GLAST [2] = test: DsRed-GLAST-positive puncta in mouse spinal cord dorsal horn; format: in vivo
Experimental: With these in vivo data collected, further experiments were performed in the transgenic mice to more clearly define the effects of propentofylline treatment on GLT-1 and GLAST in the spinal cord. As discussed above, following in vivo testing, mice were transcardially perfused and tissue was fixed with paraformaldehyde. Lumbar spinal cord sections were identified and post-fixed in paraformaldehyde. After one week in sucrose to prevent freeze fracture, spinal cord segments were frozen in dry ice, mounted and prepared with cryostat sectioning. Sections were then subjected to immunohistochemical analysis. […] In order to quantitate the relative number of eGFP (marker for GLT-1) or DsRed (marker for GLAST) puncta in each spinal cord dorsal horn, images using a fluorescence microscope were taken with a Q-Fire cooled camera (397 ms exposure). […] An observer blind to the treatment groups was used to count the relative number of GLT-1 or GLAST positive puncta in the ipsilateral (injured) dorsal horn versus the contralateral (non-injured) dorsal horn. […]
as §1

[3] = L5/propentofylline group, day 12

## CCCn1cnc2c1c(=O)n(CCCCC(C)=O)c(=O)n2C [propentofylline]
GLT-1; [3]
  eGFP-GLT-1-positive puncta in injured mice, in words: reversed with propentofylline administration; also recorded: restored levels of eGFP-GLT-1-positive puncta to that of the contralateral side
  ipsilateral versus contralateral ratio of eGFP-GLT-1-positive puncta: 1
GLT-1; sham/propentofylline group
  eGFP-GLT-1-positive puncta in sham mice: did not lead to further increases in GLT-1 above normal expression levels
Adenosine transport
  adenosine transport: inhibit adenosine transport
MIP-2 (CXCL2)
  LPS-induced MIP-2 (CXCL2) release: reversed by co-treatment with propentofylline; also recorded: significantly attenuated
GLAST [1]
  GLAST immunoreactivity in dorsal horn: did not enhance GLAST immunoreactivity on the ipsilateral side
GLAST [2]; L5/propentofylline vs L5/saline group, day 12
  DsRed-GLAST-positive puncta in injured mice: significantly enhanced the number of DsRed-GLAST-positive puncta; also recorded: increased the levels back to that seen in the contralateral side
GLAST [2]; sham/propentofylline group
  DsRed-GLAST expression in sham mice: unaffected
